How the values were obtained:
Carbonic anhydrase 4 = Carbonic anhydrase 4 (Homo sapiens, UniProt P22748)
Carbonic anhydrase 1 = Carbonic anhydrase 1 (Homo sapiens, UniProt P00915)
Oryctolagus cuniculus [1] = test: Compound was evaluated in vivo in normotensive rabbits (23.5+/-2.6 mmHg) for the intraocular pressure (IOP) lowering 30 min after topical administration with one drop of Carbonic anhydrase inhibitor at a pH 7.0; format: functional, Eye
Oryctolagus cuniculus [2] = test: Compound was evaluated in vivo in normotensive rabbits (23.5+/-2.6 mmHg) for the intraocular pressure (IOP) lowering 90 min after topical administration with one drop of Carbonic hydrase inhibitor at a pH 7.5; format: functional, Eye
Oryctolagus cuniculus [3] = test: Compound was evaluated in vivo in normotensive rabbits (23.5+/-2.6 mmHg) for the intraocular pressure (IOP) lowering 90 min after topical administration with one drop of Carbonic anhydrase inhibitor at a pH 7; format: functional, Eye
Oryctolagus cuniculus [4] = test: In vivo activity in normotensive rabbits (23.5+/-2.6 mmHg) for the intraocular pressure (IOP) lowering 30 min after topical administration with one drop of Carbonic anhydrase inhibitor at a pH 7.0; format: functional, Eye
Oryctolagus cuniculus [5] = test: In vivo activity in normotensive rabbits (23.5+/-2.6 mmHg) for the intraocular pressure (IOP) lowering 60 min after topical administration with one drop of Carbonic anhydrase inhibitor at a pH 7.0; format: functional, Eye
[6] = octanol/water
[7] = not given; remark: listed apart in the source
Oryctolagus cuniculus [8] = test: In vivo activity in normotensive rabbits (23.5+/-2.6 mmHg) for the intraocular pressure (IOP) lowering 30 min after topical administration with one drop of Carbonic anhydrase inhibitor at a pH 7; format: functional, Eye
Oryctolagus cuniculus [9] = test: In vivo activity in normotensive rabbits (23.5+/-2.6 mmHg) for the intraocular pressure (IOP) lowering 60 min after topical administration with one drop of Carbonic anhydrase inhibitor at a pH 7; format: functional, Eye
Oryctolagus cuniculus [10] = test: In vivo activity in normotensive rabbits (23.5+/-2.6 mmHg) for the intraocular pressure (IOP) lowering 90 min after topical administration with one drop of Carbonic anhydrase inhibitor at a pH 7; format: functional, Eye
Oryctolagus cuniculus [11] = test: In vivo activity in glaucomatous rabbits (33.5+/-3.0 mmHg) for the intraocular pressure (IOP) lowering 30 min after topical administration with one drop of Carbonic anhydrase at a pH 7.0; format: functional, Eye
Oryctolagus cuniculus [12] = test: In vivo activity in glaucomatous rabbits (33.5+/-3.0 mmHg) for the intraocular pressure (IOP) lowering 90 min after topical administration with one drop of Carbonic anhydrase at a pH 7.0; format: functional, Eye

Sequence of Carbonic anhydrase 1 (P00915 whole entry): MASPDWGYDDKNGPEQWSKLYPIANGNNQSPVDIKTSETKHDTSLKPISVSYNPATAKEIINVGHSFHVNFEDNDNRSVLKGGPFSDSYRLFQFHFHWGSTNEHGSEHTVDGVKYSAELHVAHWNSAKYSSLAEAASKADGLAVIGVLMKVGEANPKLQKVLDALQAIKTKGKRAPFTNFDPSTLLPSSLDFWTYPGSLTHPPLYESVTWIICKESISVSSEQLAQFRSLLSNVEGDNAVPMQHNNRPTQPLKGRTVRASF
Sequence of Carbonic anhydrase 4 (P22748 whole entry): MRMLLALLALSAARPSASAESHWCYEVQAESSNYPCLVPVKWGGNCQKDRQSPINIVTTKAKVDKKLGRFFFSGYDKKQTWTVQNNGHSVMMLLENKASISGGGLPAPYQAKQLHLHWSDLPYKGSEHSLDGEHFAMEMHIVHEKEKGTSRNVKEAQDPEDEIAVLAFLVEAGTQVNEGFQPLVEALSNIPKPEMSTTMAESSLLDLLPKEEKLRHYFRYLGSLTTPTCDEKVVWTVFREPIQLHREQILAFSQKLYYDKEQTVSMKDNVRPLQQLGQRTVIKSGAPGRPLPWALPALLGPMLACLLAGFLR

Compound | Ki (Carbonic anhydrase 4) [nM] | Ki (Carbonic anhydrase 1) [nM] | also measured
NS(=O)(=O)c1ccc(CNC(=O)CN(CCN(CCN(CC(=O)O)CC(=O)NCc2ccc(S(N)(=O)=O)cc2)CC(=O)O)CC(=O)O)cc1 [listing 1 of 2 here] | 21 | – | –
NS(=O)(=O)c1ccc(NC(=O)CN(CCN(CCN(CC(=O)O)CC(=O)Nc2ccc(S(N)(=O)=O)cc2I)CC(=O)O)CC(=O)O)c(I)c1 | 24 | 70 | –
NS(=O)(=O)c1ccc(COC(=O)CN(CCN(CCN(CC(=O)O)CC(=O)OCc2ccc(S(N)(=O)=O)cc2)CC(=O)O)CC(=O)O)cc1 | 170 | 325 | –
NS(=O)(=O)c1ccc(NC(=O)CN(CCN(CCN(CC(=O)O)CC(=O)O)CC(=O)O)CC(=O)O)c(I)c1 | 29 | 79 | –
NS(=O)(=O)c1ccc(NC(=O)CN(CCN(CCN(CC(=O)O)CC(=O)Nc2ccc(S(N)(=O)=O)cc2)CC(=O)O)CC(=O)O)cc1 [listing 1 of 2 here] | 100 | – | –
NS(=O)(=O)c1ccc(CCNC(=O)CN(CCN(CCN(CC(=O)O)CC(=O)NCCc2ccc(S(N)(=O)=O)cc2)CC(=O)O)CC(=O)O)cc1 [listing 1 of 2 here] | 16 | – | –
Nc1ccc(S(N)(=O)=O)cc1I | 125 | – | –
NS(=O)(=O)c1cc(S(N)(=O)=O)c(NC(=O)CN(CCN(CCN(CC(=O)O)CC(=O)Nc2cc(Cl)c(S(N)(=O)=O)cc2S(N)(=O)=O)CC(=O)O)CC(=O)O)cc1Cl | 41 | 63 | –
NS(=O)(=O)c1nnc(NC(=O)CCNC(=O)CN(CCN(CCN(CC(=O)O)CC(=O)O)CC(=O)O)CC(=O)O)s1 | 16 | 110 | –
NS(=O)(=O)c1nc2ccc(OCCOC(=O)CN(CCN(CCN(CC(=O)O)CC(=O)OCCOc3ccc4nc(S(N)(=O)=O)sc4c3)CC(=O)O)CC(=O)O)cc2s1 | 4 | 16 | –
NS(=O)(=O)c1cc(S(N)(=O)=O)c(NC(=O)CN(CCN(CCN(CC(=O)O)CC(=O)O)CC(=O)O)CC(=O)O)c(Cl)c1Cl | 36 | 58 | –
NS(=O)(=O)c1ccc(COC(=O)CN(CCN(CCN(CC(=O)O)CC(=O)O)CC(=O)O)CC(=O)O)cc1 | 265 | 510 | –
NS(=O)(=O)c1ccc(CCNC(=O)CN(CCN(CCN(CC(=O)O)CC(=O)O)CC(=O)O)CC(=O)O)cc1 | 36 | 290 | –
Cn1nc(S(N)(=O)=O)s/c1=N\C(=O)CN(CCN(CCN(CC(=O)O)CC(=O)/N=c1/sc(S(N)(=O)=O)nn1C)CC(=O)O)CC(=O)O [listing 1 of 2 here] | 9 | 54 | –
Cn1nc(S(N)(=O)=O)s/c1=N/C(=O)CN(CCN(CCN(CC(=O)O)CC(=O)O)CC(=O)O)CC(=O)O | 19 | 62 | –
NNc1ccc(S(N)(=O)=O)cc1 | 3200 | – | –
NS(=O)(=O)c1ccc(CCO)cc1 | 450 | – | –
NS(=O)(=O)c1ccc(NC(=O)CN(CCN(CCN(CC(=O)O)CC(=O)O)CC(=O)O)CC(=O)O)c(Cl)c1 | 32 | 200 | –
NS(=O)(=O)c1ccc(NNC(=O)CN(CCN(CCN(CC(=O)O)CC(=O)O)CC(=O)O)CC(=O)O)cc1 | 630 | 12000 | –
Nc1ccccc1S(N)(=O)=O | 1310 | – | –
NS(=O)(=O)c1nnc(NC(=O)CN(CCN(CCN(CC(=O)O)CC(=O)Nc2nnc(S(N)(=O)=O)s2)CC(=O)[O-])CC(=O)[O-])s1.[Zn+2] | 4 | – | Change in IOP (Oryctolagus cuniculus [1]): 7.4 mmHg; Change in IOP (Oryctolagus cuniculus [2]): 9.5 mmHg
Cn1nc(S(N)(=O)=O)s/c1=N\C(=O)CN(CCN(CCN(CC(=O)O)CC(=O)/N=c1/sc(S(N)(=O)=O)nn1C)CC(=O)O)CC(=O)O [listing 2 of 2 here] | 5 | 43 | –
NS(=O)(=O)c1ccccc1NC(=O)CN(CCN(CCN(CC(=O)O)CC(=O)Nc1ccccc1S(N)(=O)=O)CC(=O)O)CC(=O)O | 330 | 5400 | –
NS(=O)(=O)c1cc(S(N)(=O)=O)c(NC(=O)CN(CCN(CCN(CC(=O)O)CC(=O)Nc2c(S(N)(=O)=O)cc(S(N)(=O)=O)c(Cl)c2Cl)CC(=O)O)CC(=O)O)c(Cl)c1Cl | 25 | 43 | –
Nc1ccc2nc(S(N)(=O)=O)sc2c1 | 19 | – | –
NS(=O)(=O)c1ccc(NC(=O)CN(CCN(CCN(CC(=O)O)CC(=O)O)CC(=O)O)CC(=O)O)c(F)c1 | 29 | 180 | –
NS(=O)(=O)c1ccc(CCOC(=O)CN(CCN(CCN(CC(=O)O)CC(=O)O)CC(=O)O)CC(=O)O)cc1 | 190 | 360 | –
NS(=O)(=O)c1ccc(NC(=O)CN(CCN(CCN(CC(=O)O)CC(=O)Nc2ccc(S(N)(=O)=O)cc2F)CC(=O)O)CC(=O)O)c(F)c1 | 18 | 135 | –

Compound | Ki (Carbonic anhydrase 4) [nM] | Ki (Carbonic anhydrase 1) [nM] | also measured
NS(=O)(=O)c1nc2ccc(NC(=O)CN(CCN(CCN(CC(=O)O)CC(=O)O)CC(=O)O)CC(=O)O)cc2s1 | 9 | 36 | –
NS(=O)(=O)c1ccc(NC(=O)CN(CCN(CCN(CC(=O)O)CC(=O)O)CC(=O)O)CC(=O)O)cc1 | 180 | 4100 | Change in IOP (Oryctolagus cuniculus [3]): 7.2 mmHg; Change in IOP (Oryctolagus cuniculus [4]): 3.1 mmHg; Change in IOP (Oryctolagus cuniculus [5]): 4.5 mmHg
Nc1ccc(S(N)(=O)=O)cc1F | 180 | – | –
NS(=O)(=O)c1nnc(NC(=O)CN(CCN(CCN(CC(=O)O)CC(=O)Nc2nnc(S(N)(=O)=O)s2)CC(=O)O)CC(=O)O)s1 | 7 | – | Kin: 6.2 h⁻¹; logD [6]: 1.961; Kin [7]: 3.9 h⁻¹
NS(=O)(=O)c1nc2ccc(OC(=O)CN(CCN(CCN(CC(=O)O)CC(=O)O)CC(=O)O)CC(=O)O)cc2s1 | 6 | 32 | –
NS(=O)(=O)c1ccc(NC(=O)CN(CCN(CCN(CC(=O)O)CC(=O)O)CC(=O)O)CC(=O)O)c(Br)c1 | 27 | 96 | –
NS(=O)(=O)c1ccc(CCOC(=O)CN(CCN(CCN(CC(=O)O)CC(=O)OCCc2ccc(S(N)(=O)=O)cc2)CC(=O)O)CC(=O)O)cc1 | 115 | 290 | –
NS(=O)(=O)c1nc2ccc(OC(=O)CN(CCN(CCN(CC(=O)O)CC(=O)Oc3ccc4nc(S(N)(=O)=O)sc4c3)CC(=O)O)CC(=O)O)cc2s1 | 5 | 21 | –
Nc1ccc(S(N)(=O)=O)cc1Br | 66 | – | –
NS(=O)(=O)c1ccc(NC(=O)CN(CCN(CCN(CC(=O)O)CC(=O)Nc2ccc(S(N)(=O)=O)cc2)CC(=O)O)CC(=O)O)cc1 [listing 2 of 2 here] | 156 | – | Change in IOP (Oryctolagus cuniculus [8]): 4.4 mmHg; Change in IOP (Oryctolagus cuniculus [9]): 7.5 mmHg; Change in IOP (Oryctolagus cuniculus [10]): 9.5 mmHg; Change in IOP (Oryctolagus cuniculus [11]): 6 mmHg; Change in IOP (Oryctolagus cuniculus [12]): 11 mmHg; Kin: 6.5 h⁻¹; logD [6]: 1.456; Kin [7]: 3.6 h⁻¹
Nc1ccc(S(N)(=O)=O)cc1 [SULFANILAMIDE] | 3000 | – | –
NS(=O)(=O)c1nnc(NC(=O)CCNC(=O)CN(CCN(CCN(CC(=O)O)CC(=O)NCCC(=O)Nc2nnc(S(N)(=O)=O)s2)CC(=O)O)CC(=O)O)s1 | 8 | 102 | –
NS(=O)(=O)c1cccc(NC(=O)CN(CCN(CCN(CC(=O)O)CC(=O)O)CC(=O)O)CC(=O)O)c1 | 500 | 7200 | –
NS(=O)(=O)c1ccc(CNC(=O)CN(CCN(CCN(CC(=O)O)CC(=O)O)CC(=O)O)CC(=O)O)cc1 | 40 | 550 | –
NS(=O)(=O)c1nc2ccc(NC(=O)CN(CCN(CCN(CC(=O)O)CC(=O)Nc3ccc4nc(S(N)(=O)=O)sc4c3)CC(=O)O)CC(=O)O)cc2s1 | 6 | 25 | –
NS(=O)(=O)c1nc2ccc(OCCOC(=O)CN(CCN(CCN(CC(=O)O)CC(=O)O)CC(=O)O)CC(=O)O)cc2s1 | 5 | 30 | –
NCCC(=O)Nc1nnc(S(N)(=O)=O)s1 | 125 | – | –
NS(=O)(=O)c1nc2ccc(OCCO)cc2s1 | 15 | – | –
NS(=O)(=O)c1ccc(NC(=O)CN(CCN(CCN(CC(=O)O)CC(=O)Nc2ccc(S(N)(=O)=O)cc2Br)CC(=O)O)CC(=O)O)c(Br)c1 | 21 | 79 | –
NS(=O)(=O)c1ccc(NC(=O)CN(CCN(CCN(CC(=O)O)CC(=O)Nc2ccc(S(N)(=O)=O)cc2Cl)CC(=O)O)CC(=O)O)c(Cl)c1 | 27 | 155 | –
NS(=O)(=O)c1ccc(NNC(=O)CN(CCN(CCN(CC(=O)O)CC(=O)NNc2ccc(S(N)(=O)=O)cc2)CC(=O)O)CC(=O)O)cc1 | 430 | 9800 | –
NS(=O)(=O)c1ccc(CCNC(=O)CN(CCN(CCN(CC(=O)O)CC(=O)NCCc2ccc(S(N)(=O)=O)cc2)CC(=O)O)CC(=O)O)cc1 [listing 2 of 2 here] | 25 | – | –
NS(=O)(=O)c1cccc(NC(=O)CN(CCN(CCN(CC(=O)O)CC(=O)Nc2cccc(S(N)(=O)=O)c2)CC(=O)O)CC(=O)O)c1 | 425 | – | –
Nc1c(S(N)(=O)=O)cc(S(N)(=O)=O)c(Cl)c1Cl | 175 | – | –
NS(=O)(=O)c1cc(S(N)(=O)=O)c(NC(=O)CN(CCN(CCN(CC(=O)O)CC(=O)O)CC(=O)O)CC(=O)O)cc1Cl | 52 | 87 | –
NS(=O)(=O)c1ccccc1NC(=O)CN(CCN(CCN(CC(=O)O)CC(=O)O)CC(=O)O)CC(=O)O | 550 | 8600 | –
NS(=O)(=O)c1ccc(CNC(=O)CN(CCN(CCN(CC(=O)O)CC(=O)NCc2ccc(S(N)(=O)=O)cc2)CC(=O)O)CC(=O)O)cc1 [listing 2 of 2 here] | 37 | – | –

— ChEMBL document CHEMBL1134204, “Carbonic anhydrase inhibitors: synthesis of sulfonamides incorporating dtpa tails and of their zinc complexes with powerful topical antiglaucoma properties” (Bioorg Med Chem Lett, 2001)
